Measurements taken from PMC11882969 (Nature Communications, 2025).
Several values for one entry are separate records, joined by “and”; a condition that tells them apart may be missing. Identical values can stand only once.

Tests used:
[1] = target: hCB1 (Homo sapiens, UniProt P21554); assay: Tango β-arrestin-2 recruitment, HTLA cells, CB1R; assay type: cell-based; set-up: expressed in transfected cells; host or cells: HTLA cells (gift of R. Axel), transient transfection
[2] = target: hCB2 (Homo sapiens, UniProt P34972); assay: TRUPATH BRET2 GoA dissociation, HEK293T; assay type: cell-based; set-up: expressed in transfected cells; host or cells: HEK293T cells (ATCC: CRL-3216), transient co-transfection; settings: Log[drug], replicate columns
Chain of hCB2 (P34972 whole entry): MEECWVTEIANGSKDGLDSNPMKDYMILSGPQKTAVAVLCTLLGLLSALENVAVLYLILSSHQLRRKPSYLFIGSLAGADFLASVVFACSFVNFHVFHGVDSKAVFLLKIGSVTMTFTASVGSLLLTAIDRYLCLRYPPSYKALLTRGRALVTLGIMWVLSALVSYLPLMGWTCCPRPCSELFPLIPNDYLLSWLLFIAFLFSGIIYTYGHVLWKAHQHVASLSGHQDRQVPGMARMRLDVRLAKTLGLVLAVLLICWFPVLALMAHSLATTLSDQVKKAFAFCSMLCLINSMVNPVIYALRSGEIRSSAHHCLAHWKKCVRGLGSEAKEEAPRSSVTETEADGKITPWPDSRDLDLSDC

Chain of hCB1 (P21554 whole entry): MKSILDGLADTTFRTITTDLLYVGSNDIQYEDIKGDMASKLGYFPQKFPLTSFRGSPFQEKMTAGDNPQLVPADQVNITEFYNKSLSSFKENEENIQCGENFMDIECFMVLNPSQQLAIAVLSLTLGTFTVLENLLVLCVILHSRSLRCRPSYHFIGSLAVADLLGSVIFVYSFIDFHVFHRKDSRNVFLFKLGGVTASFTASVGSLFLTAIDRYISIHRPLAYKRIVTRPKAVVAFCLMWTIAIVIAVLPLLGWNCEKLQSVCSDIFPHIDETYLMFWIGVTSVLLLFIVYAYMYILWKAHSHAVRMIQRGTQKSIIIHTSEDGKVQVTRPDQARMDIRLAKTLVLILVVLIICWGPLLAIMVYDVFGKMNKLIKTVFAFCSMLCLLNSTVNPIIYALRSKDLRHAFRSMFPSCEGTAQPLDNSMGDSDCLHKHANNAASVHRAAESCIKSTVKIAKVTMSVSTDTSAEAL

For `COC(=O)[C@@H]1[C@@H]2CCC[C@@H]2CN1C(=O)c1cc(C)n(-c2cccc(Cl)c2)n1` (racemic) [‘10010], the “response, replicate values of concentration-response curve (FigS7f)” value (shortened to “response, replicate values”) ([1]; Log[drug], M = -4.52) was 24.852 and -9.474 and 31.57 and 49.261 and 34.9163 and 58.51 and 43.3772 and 13.5605 and 34.2635 and 143.166 and 149.946 and 121.258, the “response, replicate values” value ([1]; Log[drug], M = -5) was -6.393 and 4.812 and 50.5074 and 20.7309 and 18.1964 and 30.378 and 30.3734 and 43.3772 and 17.784 and 37.7997 and 110.741 and 29.9442 and the “response at Log[drug], M -5 (FigS4e)” value ([1]; Log[drug], M = -5, individual replicates) was 7.472 and 8.685 and 7.884 and 5.743 and 2.852 and 6.706 and 6.083 and 7.677 and 9.73 and 9.693 and 11.3624 and 13.6983. The “response, replicate values” value ([1]; Log[drug], M = -5.52) was -20.324 and 14.103 and 31.5067 and 7.169 and 19.8684 and 6.1872 and -9.345 and -6.435 and -28.1989 and 72.0832 and 46.8763 and 64.173, the “response at Log[drug], M -5.52 (FigS4e)” value ([1]; Log[drug], M = -5.52, individual replicates) was 17.6293 and 13.3704 and 15.7552 and 17.3388 and 7.111 and 7.22 and 6.777 and 6.548 and 14.8053 and 14.1767 and 12.0847 and 15.6871 and the “response, replicate values” value ([1]; Log[drug], M = -6) was -1.057 and 19.693 and 21.3155 and 18.7272 and -21.0026 and 10.5662 and 17.0767 and 0.7084 and 10.105 and 46.129 and 8.583 and -11.9397. For the same molecule, the “response at Log[drug], M -6 (FigS4e)” value ([1]; Log[drug], M = -6, individual replicates) was 17.4137 and 13.2205 and 12.7098 and 18.5288 and 2.8 and 2.042 and 0.7471 and 2.0116 and 5.809 and 8.098 and 10.8652 and 9.299, the “response, replicate values” value ([1]; Log[drug], M = -6.52) was 16.7142 and -12.7567 and -9.207 and 42.4801 and 2.591 and -9.299 and -1.706 and 6.518 and 3.588 and 25.7157 and 29.853 and 20.7035 and the “response at Log[drug], M -6.52 (FigS4e)” value ([1]; Log[drug], M = -6.52, individual replicates) was 5.804 and 6.685 and 5.518 and 6.338 and -2.975 and -1.665 and -2.183 and -3.091 and 1.981 and 0.8276 and 5.1991 and 1.175. The “response, replicate values” value ([1]; Log[drug], M = -7) was 11.1876 and 2.403 and 33.2939 and -14.3677 and -5.119 and -14.8322 and -4.192 and -26.8955 and -17.9232 and -30.0748 and 5.375 and 20.4665, the “response at Log[drug], M -7 (FigS4e)” value ([1]; Log[drug], M = -7, individual replicates) was 8.629 and 6.746 and 5.86 and 10.4703 and -2.0219 and -2.877 and 1.224 and -2.078 and 2.76 and 0.06777 and 1.494 and 1.231 and the “response, replicate values” value ([1]; Log[drug], M = -7.52) was -4.594 and -7.623 and -10.5004 and 2.14 and -6.485 and 4.329 and -8.365 and -9.244 and -13.1441 and 57.083 and -23.4769 and -26.8306. For the same molecule, the “response at Log[drug], M -7.52 (FigS4e)” value ([1]; Log[drug], M = -7.52, individual replicates) was 7.402 and 10.1376 and 9.341 and 5.865 and -1.189 and -1.594 and -1.932 and -1.59 and 2.357 and 3.37 and 0.3773 and 1.259, the “response at Log[drug], M -8 (FigS4e)” value ([1]; Log[drug], M = -8, individual replicates) was 5.148 and 6.741 and 11.0794 and 7.462 and -3.208 and -1.519 and -1.219 and -1.073 and 3.632 and 3.698 and 2.085 and 1.362 and the “response at Log[drug], M -8.52 (FigS4e)” value ([1]; Log[drug], M = -8.52, individual replicates) was 6.619 and 9.146 and 5.084 and 9.668 and -0.1198 and -1.382 and -2.75 and -0.9228 and 3.28 and -0.4583 and 7.234 and 5.093. For the same molecule, the “response at Log[drug], M -9 (FigS4e)” value ([1]; Log[drug], M = -9, individual replicates) was 7.852 and 7.417 and 8.056 and 9.08 and -2.328 and -1.287 and -1.685 and -1.328 and 7.254 and 4.304 and 5.943 and 1.774, the “response, replicate values” value ([1]; Log[drug], M = -9.52) was 6.738 and -6.178 and -20.755 and -11.5014 and the “response at Log[drug], M -9.52 (FigS4e)” value ([1]; Log[drug], M = -9.52, individual replicates) was 9.847 and 11.0284 and 11.6628 and 8.737 and -1.263 and 0.9084 and -0.5418 and -0.1936 and 4.704 and 2.799 and 4.5399 and 1.57. The “response, replicate values” value ([1]; Log[drug], M = -10) was 28.4645 and -14.1129 and -6.736 and 44.2981 and 21.9252 and 39.0432 and 53.2891 and 13.6717 and 41.3867 and -34.1393 and -0.001553 and -21.0711, the “response at Log[drug], M -10 (FigS4e)” value ([1]; Log[drug], M = -10, individual replicates) was 10.788 and 9.1102 and 5.959 and 9.12 and -1.758 and -1.431 and -1.611 and -0.8081 and 3.28 and 4.704 and 4.745 and 3.311 and the “response at Log[drug], M -10.52 (FigS4e)” value ([1]; Log[drug], M = -10.52, individual replicates) was 6.358 and 9.064 and 8.9107 and 9.172 and 1.265 and 0.1792 and -0.6688 and 1.04 and 3.157 and 2.819 and 2.153 and 4.1507. For the same molecule, the “response at Log[drug], M -11 (FigS4e)” value ([1]; Log[drug], M = -11, individual replicates) was 2.256 and 6.798 and 9.796 and 5.744 and -1.353 and -1.763 and 1.556 and -0.804 and 2.6758 and 2.932 and 3.905 and 1.57, the “response at Log[drug], M -11.52 (FigS4e)” value ([1]; Log[drug], M = -11.52, individual replicates) was 2.281 and 3.903 and 3.253 and 1.1509 and 1.314 and 0.9699 and 1.212 and 0.552 and 3.905 and 2.9421 and 2.881 and 4.816 and the “response at Log[drug], M -12 (FigS4e)” value ([1]; Log[drug], M = -12, individual replicates) was 1.069 and -1.289 and -0.4859 and 0.7059 and -0.1854 and 0.7118 and -1.111 and 0.5848 and 1.078 and -0.868 and 0.4635 and -0.6734. For the same molecule, the EC50 ([1]; hCB1, read-out: Tango ß-arrestin recruitment EC50) was greater than 10 µM, the “functional response, concentration-response point (FigS7e, normalized)” value (from here on “functional response … (FigS7e, normalized)”) ([2]; M = -5) was 13.7314 and 19.7654 and 16.2539 and 16.3582 and 15.5266 and 14.7181 and 16.9744 and 17.1956 and 17.3437 and 20.7447 and 17.5139 and 16.5546 and the “functional response … (FigS7e, normalized)” value ([2]; M = -5.52) was 20.9042 and 19.2165 and 18.0732 and 18.0369 and 19.6455 and 19.8563 and 17.8521 and 14.5073 and 16.3411 and 19.903 and 17.2602 and 16.9755. For the same molecule, the “functional response … (FigS7e, normalized)” value ([2]; M = -6) was 10.7507 and 14.9427 and 13.7359 and 16.0951 and 12.4583 and 11.3422 and 12.1059 and 9.687 and 11.8107 and 11.4703 and 9.703 and 11.3929, the “functional response … (FigS7e, normalized)” value ([2]; M = -6.52) was 4.563 and 6.7947 and 8.079 and 4.985 and 4.497 and 4.0725 and 5.772 and 5.524 and 4.879 and 5.1763 and 4.984 and 5.043 and the “functional response … (FigS7e, normalized)” value ([2]; M = -7) was 0.9969 and 1.487 and 2.14 and 1.042 and 1.585 and 1.996 and 1.046 and 1.153 and 1.5 and 1.42 and 1.036 and 1.049. The “functional response … (FigS7e, normalized)” value ([2]; M = -7.52) was 0.4797 and -0.06465 and 1.02 and 1.242 and 0.9491 and 0.7245 and 0.6969 and 0.2961 and 0.374 and 0.3276 and 0.4451 and 0.1667, the “functional response … (FigS7e, normalized)” value ([2]; M = -8) was 0.02154 and 0.144 and -0.228 and -0.5682 and 0.189 and -0.07359 and -0.0114 and 0.652 and 0.7051 and 0.1667 and -0.0685 and 0.08312 and the “functional response … (FigS7e, normalized)” value ([2]; M = -8.52) was -0.1696 and -0.1994 and 0.2365 and -0.2192 and 0.07356 and 0.6319 and 1.0091 and 0.1075 and 0.1334 and 0.5456 and 0.1807 and -0.04223. For the same molecule, the “functional response … (FigS7e, normalized)” value ([2]; M = -12) was -0.3529 and 0.3603 and 0.09782 and -0.1053.
